Source: patent US20070225351A1, “Methods and compositions for controlling body weight and appetite” (priority 2002, published 2007)

How the values were obtained:
[1] = Toxicokinetic evaluation in rats; details: rat, in vivo; for AUC(0-t): Crl:CD(SD)IGS BR, po, 10 mg/kg/day, AUC0-24 h
Description: For toxicokinetic evaluation, all animals were observed twice daily for mortality and moribundity. Blood samples were collected from three animals/sex/group at 0 (pre-dose), 1, 2, 4, 8 and 24 hours after dose administration on study days 0 and 87. All toxicokinetic animals were euthanized and discarded following the final blood collection (study day 88).

[2] = molecular target: norepinephrine transporter (Rattus norvegicus, UniProt Q63380); details: from Table 1
Chain of norepinephrine transporter (Q63380 1-617): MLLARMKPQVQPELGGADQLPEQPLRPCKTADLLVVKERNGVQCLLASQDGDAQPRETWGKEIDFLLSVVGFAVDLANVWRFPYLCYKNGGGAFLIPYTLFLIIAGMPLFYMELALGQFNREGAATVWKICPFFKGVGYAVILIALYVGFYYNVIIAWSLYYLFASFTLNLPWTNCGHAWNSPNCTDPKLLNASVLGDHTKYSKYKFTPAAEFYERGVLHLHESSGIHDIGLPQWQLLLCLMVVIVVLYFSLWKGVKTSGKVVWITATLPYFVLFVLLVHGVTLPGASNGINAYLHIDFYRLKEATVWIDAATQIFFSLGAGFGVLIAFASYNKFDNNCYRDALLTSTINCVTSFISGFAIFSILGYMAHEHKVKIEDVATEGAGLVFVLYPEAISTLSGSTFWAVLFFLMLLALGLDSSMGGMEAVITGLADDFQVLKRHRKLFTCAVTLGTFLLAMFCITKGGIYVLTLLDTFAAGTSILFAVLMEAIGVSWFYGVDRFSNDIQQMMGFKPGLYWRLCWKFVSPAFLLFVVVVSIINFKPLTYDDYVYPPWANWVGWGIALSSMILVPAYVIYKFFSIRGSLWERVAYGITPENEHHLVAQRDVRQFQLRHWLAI
Description: Reactions were carried out in 50 mM TRIS-HCl (pH 7.4), containing 300 mM NaCl and 5 mM KCl at 0° C. to 4° C. for 4 hours. The reaction was terminated by rapid vacuum filtration onto glass fiber filters. Radioactivity trapped in the filters was determined and compared to control values in order to ascertain the interactions of the test compound with the norepinephrine uptake site.

in vivo = type: in vivo; details: female dogs
Description: Eighteen male and eighteen female beagle dogs were received from Ridglan Farms, Mt. Horeb, Wis. […] Each group consisted of four males and four females. All animals/sex/group were scheduled for the primary necropsy at the end of the 13-week treatment period.
The animals were observed twice daily for mortality and moribundity. Clinical examinations were performed daily at the time of dosing and approximately 1-2 and approximately 3 hours following dose administration. Detailed physical examinations were performed weekly. Clinical pathology evaluations (hematology, serum chemistry and urinalysis) were performed prior to the initiation of dose administration (study week-1) and prior to the scheduled necropsy (study week 13). Individual body weights were recorded weekly, beginning approximately two weeks prior to test article administration (study week-2). Mean body weights and mean body weight changes were calculated for each corresponding interval. Final body weights (fasted) were recorded prior to the scheduled necropsy. […] Gross lesions were also examined from the 2.0 and 6.0 mg/kg/day groups.

## Cl.Clc1ccc([C@@]23CNC[C@@H]2C3)cc1Cl (single isomer, unassigned) [(+)-1-(3,4-dichlorophenyl)-3-azabicyclo[3.1.0]hexane hydrochloride]
[1]; female
  AUC(0-t): 14400 ng·h/mL
[1]; male
  AUC(0-t): 8130 ng·h/mL
[1]
  exposure versus dose: increased dose-dependently
[2]
  affinity for the norepinephrine uptake site compared with the (±) compound: significantly greater affinity
In vivo; 20 mg/kg/day, end of 13-week study
  mean total cumulative body weight change, lower than control: 65%
In vivo; 20 mg/kg/day, first week of dose administration
  mean food consumption, lower than control: 23%
In vivo; 20 mg/kg/day, study week 13
  mean body weight, lower than control: 9%
In vivo; 2.0 MG/KG/DAY group, WEEK −1 TO 0 (before dosing)
  weekly food consumption, MEAN: 295. C/ANIMAL/DAY
In vivo; 2.0 MG/KG/DAY, WEEK 0 TO 1
  weekly food consumption, MEAN: 291. C/ANIMAL/DAY
In vivo; 2.0 MG/KG/DAY, WEEK 1 TO 2
  weekly food consumption, MEAN: 319. C/ANIMAL/DAY
In vivo; 2.0 MG/KG/DAY, WEEK 2 TO 3
  weekly food consumption, MEAN: 361. C/ANIMAL/DAY
In vivo; 2.0 MG/KG/DAY, WEEK 3 TO 4
  weekly food consumption, MEAN: 358. C/ANIMAL/DAY
In vivo; 2.0 MG/KG/DAY, WEEK 4 TO 5
  weekly food consumption, MEAN: 369. C/ANIMAL/DAY
In vivo; 2.0 MG/KG/DAY, WEEK 5 TO 6
  weekly food consumption, MEAN: 360. C/ANIMAL/DAY
In vivo; 2.0 MG/KG/DAY, WEEK 6 TO 7
  weekly food consumption, MEAN: 393. C/ANIMAL/DAY
In vivo; 2.0 MG/KG/DAY, WEEK 7 TO 8
  weekly food consumption, MEAN: 360. C/ANIMAL/DAY
In vivo; 2.0 MG/KG/DAY, WEEK 8 TO 9
  weekly food consumption, MEAN: 383. C/ANIMAL/DAY
In vivo; 2.0 MG/KG/DAY, WEEK 9 TO 10
  weekly food consumption, MEAN: 375. C/ANIMAL/DAY
In vivo; 2.0 MG/KG/DAY, WEEK 10 TO 11
  weekly food consumption, MEAN: 389. C/ANIMAL/DAY
In vivo; 2.0 MG/KG/DAY, WEEK 12 TO 13
  weekly food consumption, MEAN: 355. C/ANIMAL/DAY
In vivo; 6.0 MG/KG/DAY group, WEEK −1 TO 0 (before dosing)
  weekly food consumption, MEAN: 275. C/ANIMAL/DAY
In vivo; 6.0 MG/KG/DAY, WEEK 0 TO 1
  weekly food consumption, MEAN: 247. C/ANIMAL/DAY
In vivo; 6.0 MG/KG/DAY, WEEK 1 TO 2
  weekly food consumption, MEAN: 288. C/ANIMAL/DAY
In vivo; 6.0 MG/KG/DAY, WEEK 2 TO 3
  weekly food consumption, MEAN: 307. C/ANIMAL/DAY
In vivo; 6.0 MG/KG/DAY, WEEK 3 TO 4
  weekly food consumption, MEAN: 307. C/ANIMAL/DAY
In vivo; 6.0 MG/KG/DAY, WEEK 4 TO 5
  weekly food consumption, MEAN: 350. C/ANIMAL/DAY
In vivo; 6.0 MG/KG/DAY, WEEK 5 TO 6
  weekly food consumption, MEAN: 374. C/ANIMAL/DAY
In vivo; 6.0 MG/KG/DAY, WEEK 6 TO 7
  weekly food consumption, MEAN: 381. C/ANIMAL/DAY
In vivo; 6.0 MG/KG/DAY, WEEK 7 TO 8
  weekly food consumption, MEAN: 356. C/ANIMAL/DAY
In vivo; 6.0 MG/KG/DAY, WEEK 8 TO 9
  weekly food consumption, MEAN: 368. C/ANIMAL/DAY
In vivo; 6.0 MG/KG/DAY, WEEK 9 TO 10
  weekly food consumption, MEAN: 360. C/ANIMAL/DAY
In vivo; 6.0 MG/KG/DAY, WEEK 10 TO 11
  weekly food consumption, MEAN: 367. C/ANIMAL/DAY
In vivo; 6.0 MG/KG/DAY, WEEK 11 TO 12
  weekly food consumption, MEAN: 357. C/ANIMAL/DAY
In vivo; 6.0 MG/KG/DAY, WEEK 12 TO 13
  weekly food consumption, MEAN: 331. C/ANIMAL/DAY
In vivo; 20 MG/KG/DAY group, WEEK −1 TO 0 (before dosing)
  weekly food consumption, MEAN: 275. C/ANIMAL/DAY
In vivo; 20 MG/KG/DAY, WEEK 0 TO 1
  weekly food consumption, MEAN: 212.* C/ANIMAL/DAY
In vivo; 20 MG/KG/DAY, WEEK 1 TO 2
  weekly food consumption, MEAN: 295. C/ANIMAL/DAY
In vivo; 20 MG/KG/DAY, WEEK 2 TO 3
  weekly food consumption, MEAN: 314. C/ANIMAL/DAY
In vivo; 20 MG/KG/DAY, WEEK 3 TO 4
  weekly food consumption, MEAN: 337. C/ANIMAL/DAY
In vivo; 20 MG/KG/DAY, WEEK 4 TO 5
  weekly food consumption, MEAN: 356. C/ANIMAL/DAY
In vivo; 20 MG/KG/DAY, WEEK 5 TO 6
  weekly food consumption, MEAN: 331. C/ANIMAL/DAY
In vivo; 20 MG/KG/DAY, WEEK 6 TO 7
  weekly food consumption, MEAN: 328. C/ANIMAL/DAY
In vivo; 20 MG/KG/DAY, WEEK 7 TO 8
  weekly food consumption, MEAN: 325. C/ANIMAL/DAY
In vivo; 20 MG/KG/DAY, WEEK 8 TO 9
  weekly food consumption, MEAN: 375. C/ANIMAL/DAY
In vivo; 20 MG/KG/DAY, WEEK 9 TO 10
  weekly food consumption, MEAN: 322. C/ANIMAL/DAY
In vivo; 20 MG/KG/DAY, WEEK 10 TO 11
  weekly food consumption, MEAN: 350. C/ANIMAL/DAY
